PMC12061237, “Berberine is a Novel Mitochondrial Calcium Uniporter Inhibitor that Disrupts MCU‐EMRE Assembly” (Advanced Science, 2025)

Biological target: T1, GST-MCU (recombinant) (Homo sapiens, UniProt Q8NE86)
T1 construct: recombinant GST fusion
T1 sequence (Q8NE86 51-351): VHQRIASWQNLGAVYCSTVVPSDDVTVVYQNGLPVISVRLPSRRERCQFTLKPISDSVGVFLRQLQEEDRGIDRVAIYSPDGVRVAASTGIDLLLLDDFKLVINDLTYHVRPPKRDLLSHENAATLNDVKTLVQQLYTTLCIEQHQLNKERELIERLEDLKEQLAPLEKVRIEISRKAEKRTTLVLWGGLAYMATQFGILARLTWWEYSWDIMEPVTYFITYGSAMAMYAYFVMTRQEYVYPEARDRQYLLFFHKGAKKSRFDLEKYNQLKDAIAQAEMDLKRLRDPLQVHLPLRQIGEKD
Assay: in vitro biotin pull-down, immunoblot
Assay type: binding
Conditions: biotin-labelled compound 2 µg, 4 °C; competed by free berberine

COc1ccc2cc3[n+](cc2c1OC(=O)CCCCCNC(=O)CCCC[C@@H]1SC[C@@H]2NC(=O)N[C@@H]21)CCc1cc2c(cc1-3)OCO2 [Biotin-Berberine]
in vitro biotin pull-down, immunoblot: Biotin‐BBR directly binds to recombinant glutathione‐S‐transferase (GST)‐MCU
